Experimental data published in PMC8901637, “Deprogramming metabolism in pancreatic cancer with a bi-functional GPR55 inhibitor and biased β2 adrenergic agonist” (Scientific Reports, 2022).

What was measured:
[1] = target: T1, GPR55 (Homo sapiens, UniProt Q9Y2T6); assay: inhibition of uptake of the fluorescent GPR55 agonist T1117 in hGPR55-HEK293 cells; positive control; format: cell-based
T1 construct: 3 × HA-tagged human GPR55 stably expressed in HEK293 cells

[2] = target: T1, GPR55; assay: inhibition of uptake of the fluorescent GPR55 agonist T1117 in hGPR55-HEK293 cells (live-cell imaging); format: cell-based

T1 sequence (Q9Y2T6 whole entry): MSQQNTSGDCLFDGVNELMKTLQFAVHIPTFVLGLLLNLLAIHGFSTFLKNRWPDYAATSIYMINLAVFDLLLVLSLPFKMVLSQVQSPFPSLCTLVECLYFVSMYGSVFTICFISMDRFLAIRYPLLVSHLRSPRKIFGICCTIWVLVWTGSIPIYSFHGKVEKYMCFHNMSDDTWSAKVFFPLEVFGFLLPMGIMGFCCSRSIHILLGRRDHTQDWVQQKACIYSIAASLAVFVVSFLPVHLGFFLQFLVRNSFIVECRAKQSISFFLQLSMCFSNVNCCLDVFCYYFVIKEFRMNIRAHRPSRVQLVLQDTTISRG

| SMILES | % reduction in T1117 incorporation [1] | IC50 [2] |
| --- | --- | --- |
| COc1ccc(C[C@@H](C)NC[C@H](O)c2cc(O)cc(O)c2)c2ccccc12 [(R,R′)-MNF] | ~ 70 % reduction in T1117 incorporation | – |
| COc1ccc(C[C@H](C)NC[C@H](O)c2cc(O)cc(O)c2)c2ccccc12 [(R,S′)-MNF, (R,S′)-4′-methoxy-1-naphthylfenoterol] | – | 1300 nM |
